{
  "source": "patent US6362160B1",
  "about": "“Immunophilin-binding agents prevent glutamate neurotoxicity associated with vascular stroke and neurodegenerative diseases” (The Johns Hopkins University School of Medicine, priority 1993, dated 2002)",
  "key": {"[1]": {"tested_on": "primary cerebral cortical neuronal cultures", "assay": "cells", "assay_type": "cell-based", "method": "Methods: Primary neuronal cultures from cortex were prepared from fetal Sprague-Dawley rats gestation day 13-14. After dissection, the cells were dissociated by trituration, counted, and plated in 15 mm multi-well (Nunc) plates coated with polyornithine at a density of 3-4×10^5 cells per well. Proliferation of non-neuronal cells was inhibited by applying 10 μg of 5-fluor-2′-deoxyuridine 4 days after plating for a total of 3 days. Neurons were maintained in modified Eagle's medium (MEM), 5% horse serum, 2 mM glutamine in 8% CO2, humidified at 37° C. Media was changed twice a week. Mature neurons (greater than 21 days in culture) were used in all experiments.\nNeurotoxicity was determined by exposing the neurons to the various test solutions as previously described (Dawson, et al., Proc. Natl. Acad. Sci., USA, 88:6368-6371 (1991)). Prior to exposure, the cells were washed 3 times with a Tris-buffered control solution (CSS) containing 120 mM NaCl, 5.4 mM KCl, 1.8 mM CaCl2, 25 mM Tris-HCl, 15 mM glucose at pH 7.4. […] Rapamycin (RAPA) was applied 5 min. prior to and during the application of FK-506 and the excitatory amino acids. Following immunosuppressant drug pretreatment, NMDA and quisqualate were applied to the cells for 5 min., then the cells were washed with CSS and replaced with MEM, 21 mM glucose for 24 hr. in the incubator. Exposures to kainate were performed in MEM, 21 mM glucose for 24 hr. in the incubator. NMDA, quisqualate, and kainate were also applied to the neurons without immunosuppressant drug pretreatment. The effect of N-Arg (L-nitroarginine) on NMDA neurotoxicity was assessed as described (Dawson, et al., Proc. Natl. Acad. Sci., USA, 88:6368-6371 (1991)). Twenty to 24 hr. after exposure to test solutions, the neurons were exposed to 0.4% trypan blue in CSS to stain the residue of non-viable cells and to assess toxicity. Viable and non-viable cells were counted with approximately 500-1,500 cells counted per well. At least two separate experiments utilizing four separate wells were performed for each data point shown. A minimum of 4,000-12,000 neurons were counted for each data point. In some experiments photomicrographs were made before and after treatment using a transparent grid at the bottom of each culture plate. Viable and non-viable neurons in identical fields were counted by an observer blinded to study design and treatment protocol."}, "[2]": {"tested_on": "cGMP formation in primary neuronal cortical cultures", "assay": "cGMP levels in primary neuronal cortical cultures", "assay_type": "cell-based, rat", "method": "Methods: Primary neuronal cortical cultures were treated under identical conditions as those used for assessment of neurotoxicity except for the addition of 100 μM isobutylmethylxanthine (IBMX) to all wells to inhibit phosphodiesterases. […] Following ether extraction, cGMP was assayed utilizing an Amersham ^125 I-assay kit according to the manufacturer's instructions. Data represent the mean (±S.E.M.) of 6-12 wells (2-3 different plating of cultures) in duplicate. Statistical significance was determined by the Student's t-test, *p≦0.005."}, "[3]": {"tested_on": "NMDA elicited Ca2+ currents", "assay": "NMDA elicited Ca2+ currents in cortical cultures", "assay_type": "cell-based, rat", "conditions": "FK-506 500 nM (data not shown)"}},
  "data": [
    {"smiles": "C=CC[C@@H]1/C=C(\\C)C[C@H](C)C[C@H](OC)[C@H]2O[C@@](O)(C(=O)C(=O)N3CCCC[C@H]3C(=O)O[C@H](/C(C)=C/[C@@H]3CC[C@@H](O)[C@H](OC)C3)[C@H](C)[C@@H](O)CC1=O)[C@H](C)C[C@@H]2OC", "note": "[FK-506]", "values": [
      {"measurement": "% Cell Death (± S.E.M.)", "setting": "[1]; 100 μM Kainate + 500 nM FK-506", "result": "88.1 ± 3.8", "unit": "%"},
      {"measurement": "% Cell Death (± S.E.M.)", "setting": "[1]; 500 μM Glutamate + 500 nM FK-506", "result": "*40.6 ± 3.9%"},
      {"measurement": "% Cell Death (± S.E.M.)", "setting": "[1]; 500 μM NMDA + 500 pM FK-506", "result": "78.3 ± 4.7", "unit": "%"},
      {"measurement": "% Cell Death (± S.E.M.)", "setting": "[1]; 500 μM NMDA + 1 nM FK-506", "result": "77.1 ± 4.0", "unit": "%"},
      {"measurement": "% Cell Death (± S.E.M.)", "setting": "[1]; 500 μM NMDA + 10 nM FK-506", "result": "68.5 ± 11.2", "unit": "%"},
      {"measurement": "% Cell Death (± S.E.M.)", "setting": "[1]; 500 μM NMDA + 25 nM FK-506", "result": "*67.2 ± 4.1%"},
      {"measurement": "% Cell Death (± S.E.M.)", "setting": "[1]; 500 μM NMDA + 50 nM FK-506", "result": "*61.9 ± 5.8%"},
      {"measurement": "% Cell Death (± S.E.M.)", "setting": "[1]; 500 μM NMDA + 100 nM FK-506", "result": "*40.0 ± 9.1%"},
      {"measurement": "% Cell Death (± S.E.M.)", "setting": "[1]; 500 μM NMDA + 500 nM FK-506", "result": "**29.7 ± 5.8%"},
      {"measurement": "% Cell Death (± S.E.M.)", "setting": "[1]; 500 μM NMDA + 1 μM FK-506", "result": "**29.2 ± 4.1%"},
      {"measurement": "% Cell Death (± S.E.M.)", "setting": "[1]; 500 μM Quisqualate + 500 nM FK-506", "result": "90.5 ± 4.4", "unit": "%"},
      {"measurement": "EC50", "setting": "[1]; Rattus norvegicus, applied 5 min prior to and during 5 min NMDA application, read-out: concentration at which 50% protection from NMDA neurotoxicity is evident", "result": "25 to 100", "unit": "nM"},
      {"measurement": "lowest concentration providing significant protection from NMDA neurotoxicity", "setting": "[1]; applied 5 min prior to and during 5 min NMDA application", "result": 25, "unit": "nM"},
      {"measurement": "% Basal cGMP Level (± S.E.M.)", "setting": "[2]; 300 μM SNP + 100 nM FK-506", "result": "509.9 ± 63.4", "unit": "%"},
      {"measurement": "% Basal cGMP Level (± S.E.M.)", "setting": "[2]; 500 μM NMDA + 100 nM FK-506", "result": "*89.3 ± 25.4%"},
      {"measurement": "reduction of the NMDA stimulation of cGMP levels", "setting": "[2]; FK-506 100 nM", "result": "approximately 80%"},
      {"measurement": "effect on NMDA elicited Ca2+ currents", "setting": "[3]", "result": "no effect"}
    ]},
    {"smiles": "N[C@@H](CCC(=O)O)C(=O)O", "note": "[Glutamate]", "values": [
      {"measurement": "% Cell Death (± S.E.M.)", "setting": "[1]; 500 μM Glutamate alone", "result": "76.0 ± 5.2", "unit": "%"}
    ]},
    {"smiles": "C=C(C)[C@H]1CN[C@H](C(=O)O)[C@H]1CC(=O)O", "note": "[Kainate, kainate]", "values": [
      {"measurement": "% Cell Death (± S.E.M.)", "setting": "[1]; 100 μM Kainate alone, 24 hr exposure", "result": "83.2 ± 6.3", "unit": "%"},
      {"measurement": "cell death elicited, compared with glutamate (500 μM)", "setting": "[1]; kainate 100 μM", "result": "as much cell death as glutamate"}
    ]},
    {"smiles": "CN[C@H](CC(=O)O)C(=O)O", "note": "[NMDA, N-methyl-D-aspartate]", "values": [
      {"measurement": "% Cell Death (± S.E.M.)", "setting": "[1]; 500 μM NMDA alone, 5 min exposure, counted 20-24 hr later", "result": "82.8 ± 4.3", "unit": "%"},
      {"measurement": "death of neurons", "setting": "[1]; 5 min exposure to NMDA, observed 24 hrs later", "result": "about 80%"},
      {"measurement": "% Basal cGMP Level (± S.E.M.)", "setting": "[2]; 500 μM NMDA alone, 5 min, 100 μM IBMX", "result": "552.6 ± 95.6", "unit": "%"}
    ]},
    {"smiles": "N[C@@H](Cn1oc(=O)[nH]c1=O)C(=O)O", "note": "[Quisqualate, quisqualate]", "values": [
      {"measurement": "% Cell Death (± S.E.M.)", "setting": "[1]; 500 μM Quisqualate alone, 5 min exposure", "result": "85.9 ± 6.0", "unit": "%"},
      {"measurement": "cell death elicited, compared with glutamate (500 μM)", "setting": "[1]; quisqualate 500 μM", "result": "as much cell death as glutamate"}
    ]}
  ]
}
